This is an account of results in patent US20240423927A1, “COMPOSITIONS AND METHODS FOR USE IN IMMUNOTHERAPY” (INSTITUT CURIE, priority 2021, published 2024).

For assay [1], the system named is tumor-specific CD8 and CD4 T cell responses (PBMCs). The assay can be described thus: Ex vivo stimulation assay: IFN-γ ELISPOT of PBMCs stimulated with OVA and p15 peptides. In kind it is in vivo, C57BL/6J mice. The following applies: Example 1, four days after third s.c. injection, cGAMP-VLP 50 ng cGAMP s.c., Imatinib 10 mg/kg i.p. From the text: […] Mice were bled in the retro-orbital sinus and PBMCs were isolated from whole blood by lysing the red blood cells. […] Spots were developed using a mouse IFN-γ ELISPOT antibody (Diaclone) according to the manufacturer's instructions, and the number of spots enumerated using an ImmunoSpot analyzer.

The test system of assay [2] is MCA-OVA tumor. In words: Survival of treated MCA-OVA tumor-bearing mice. It counts as in vivo, C57BL/6J mice. The following applies: Example 1; log-rank test; cGAMP-VLP 50 ng cGAMP s.c., Imatinib 10 mg/kg i.p.
The subject of assay [3] is MCA-OVA tumor. The assay can be described thus: Tumor growth monitoring in MCA-OVA tumor model. In kind it is in vivo, C57BL/6J mice. Particulars: Example 1; cGAMP-VLP 50 ng cGAMP s.c. three times, Imatinib 10 mg/kg i.p. days 6-10.
Assay [4] concerns the target STING (Homo sapiens, UniProt Q86WV6). The following applies: compared with cGAMP, reporter assays; cited from earlier work.
Assay [5] concerns STING. The following applies: comparative statement (hSTING vs mSTING; or vs cGAMP); cited from earlier work.

STING (Homo sapiens, UniProt Q86WV6), sequence (Q86WV6 whole entry): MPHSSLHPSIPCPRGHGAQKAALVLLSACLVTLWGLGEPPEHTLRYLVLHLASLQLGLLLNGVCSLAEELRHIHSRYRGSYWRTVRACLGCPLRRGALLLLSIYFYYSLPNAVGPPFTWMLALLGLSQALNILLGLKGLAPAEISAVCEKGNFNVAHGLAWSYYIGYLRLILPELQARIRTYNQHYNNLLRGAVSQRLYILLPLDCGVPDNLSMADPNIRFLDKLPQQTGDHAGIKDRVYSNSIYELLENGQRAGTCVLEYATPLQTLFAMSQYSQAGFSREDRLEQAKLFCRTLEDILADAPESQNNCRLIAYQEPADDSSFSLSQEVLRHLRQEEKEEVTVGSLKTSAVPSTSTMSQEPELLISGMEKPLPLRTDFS

Take `Cc1ccc(NC(=O)c2ccc(CN3CCN(C)CC3)cc2)cc1Nc1nccc(-c2cccnc2)n1` [Imatinib]: the “Tumor-specific T cell responses in peripheral blood (IFN-γ ELISPOT)” value in assay [1] was “did not induce tumor-specific T cell responses compared to the PBS group”. The “Survival (death event: tumor size >2 cm^3)” value in the assay with MCA-OVA tumor [2] is “did not show survival benefit compared to PBS treatment”. The Tumor growth entry in the assay on MCA-OVA tumor [3] was “no effect on the tumor growth compared to control group”.

In the case of `COc1c(O)cc2oc3cc(O)c(CC=C(C)C)c(O)c3c(=O)c2c1CC=C(C)C` [α-mangostin], the “Potency for inducing type I IFN” value at STING [4] is listed as “weaker potency for inducing type I IFN compared with cGAMP”. Also, the “Affinity/binding to STING” value in the assay with STING [5] is “higher affinity to human (h)STING than to mSTING”.

For the compound Diaminobenzimidazole, the “Affinity/binding to STING” value in the assay with STING [5] is “enhanced binding to STING and cellular function as compared to cGAMP”.
